Data published in patent publication US4082881A, “Topical and other type pharmaceutical formulations containing isosorbide carrier” (E. R. Squibb & Sons, Inc., priority 1976, dated 1978).

How the values were obtained:
[1] = solubility of the steroid in water and in hydrocarbon and other vehicles; assay type: physicochemical
[2] = solubility of econazole nitrate in water and in the isosorbide preparations; assay type: physicochemical

SMILES	solubility in hydrocarbon vehicles ([1]; mineral oil, petrolatum or polyethylene gelled mineral oil, compared with water)	solubility ([1]; water)	solubility in water-soluble emulsifiers and oil liquids or emollients ([1]; water-soluble emulsifiers and oil liquids or emollients suggested for ointments, gels, creams and lotions)	solubilized and available econazole nitrate relative to a conventional lotion or cream ([2]; in these preparations (Econazole Cream 0.5%, Econazole Lotion 0.5%) vs conventional lotion or cream, about)	solubility ([2]; water)
CC1(C)O[C@@H]2C[C@H]3[C@@H]4CCC5=CC(=O)CC[C@]5(C)[C@@]4(F)[C@@H](O)C[C@]3(C)[C@]2(C(=O)CCl)O1 [21-chloro-9α-fluoro-Δ^4-pregnene-11β,16α,17α-triol-3,20-dione 16,17-acetonide]	even less soluble	< 5 µg/mL	undesirably low solubility	–	–
Clc1ccc(COC(Cn2ccnc2)c2ccc(Cl)cc2Cl)cc1 (centres unmarked) [econazole nitrate]	–	–	–	≥ 5 times	~1000 µg/mL
